The values below come from ChEMBL document CHEMBL3639107, “Dioxa-bicyclo[3.2.1]octane-2,3,4-triol derivatives” (2014).

For orientation: IC50 means the concentration that gives 50% inhibition. The low end stands for inhibition by little substance, the high end for a need for much substance.

Values joined by “and” are separate entries in the source; they are usually repeats but may differ in a detail not shown here. Equal values may be shown once.

This assay concerns the target T1, Sodium/glucose cotransporter 2 (Homo sapiens, UniProt P31639).
T1 sequence (P31639 whole entry): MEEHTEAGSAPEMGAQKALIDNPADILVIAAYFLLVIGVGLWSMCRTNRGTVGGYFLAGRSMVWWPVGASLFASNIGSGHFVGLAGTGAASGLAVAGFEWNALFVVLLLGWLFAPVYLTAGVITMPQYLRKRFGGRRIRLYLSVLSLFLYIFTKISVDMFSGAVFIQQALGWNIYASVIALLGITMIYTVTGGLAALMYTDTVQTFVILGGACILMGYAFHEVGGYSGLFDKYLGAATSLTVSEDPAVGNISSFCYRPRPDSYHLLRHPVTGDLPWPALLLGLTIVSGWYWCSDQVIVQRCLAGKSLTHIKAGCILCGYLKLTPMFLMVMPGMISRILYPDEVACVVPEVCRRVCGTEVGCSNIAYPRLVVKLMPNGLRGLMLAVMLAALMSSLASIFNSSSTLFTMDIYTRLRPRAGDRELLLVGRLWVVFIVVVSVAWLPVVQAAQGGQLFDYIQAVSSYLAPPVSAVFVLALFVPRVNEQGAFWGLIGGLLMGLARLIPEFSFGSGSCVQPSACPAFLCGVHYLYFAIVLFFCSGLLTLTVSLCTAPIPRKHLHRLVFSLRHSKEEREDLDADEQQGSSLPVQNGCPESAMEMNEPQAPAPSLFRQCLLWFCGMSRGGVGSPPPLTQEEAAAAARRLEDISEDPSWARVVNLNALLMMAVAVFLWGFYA
Description: Biological Assays: The SGLT2 functional assay was designed to detect the inhibition of methyl-alpha-D glucopyranoside (AMG a non-metabolizable form of glucose) uptake via the SGLT2 transporter. The SGLT2 transporter recovers glucose from the proximal tubules of the kidney; its inhibition results in sugar wasted in the urine. The positive control compound, Phlorizin, is a known inhibitor of glucose uptake for SGLT2 and was used for comparing the high percent effect of SGLT2 inhibition of the test compounds.

As for `CCOc1ccc(Cc2cc([C@]34OC[C@](COC(C)=O)(O3)[C@@H](O)[C@H](O)[C@H]4O)ccc2Cl)cc1`, the IC50 is 5 nM and 6.7 nM.
